Experimental findings from patent US12240862B2, “Inhibitors of peptidylarginine deiminases” (Gilead Sciences, Inc., priority 2020, dated 2025) are described below.

T1 sequence (Q9UM07 2-663): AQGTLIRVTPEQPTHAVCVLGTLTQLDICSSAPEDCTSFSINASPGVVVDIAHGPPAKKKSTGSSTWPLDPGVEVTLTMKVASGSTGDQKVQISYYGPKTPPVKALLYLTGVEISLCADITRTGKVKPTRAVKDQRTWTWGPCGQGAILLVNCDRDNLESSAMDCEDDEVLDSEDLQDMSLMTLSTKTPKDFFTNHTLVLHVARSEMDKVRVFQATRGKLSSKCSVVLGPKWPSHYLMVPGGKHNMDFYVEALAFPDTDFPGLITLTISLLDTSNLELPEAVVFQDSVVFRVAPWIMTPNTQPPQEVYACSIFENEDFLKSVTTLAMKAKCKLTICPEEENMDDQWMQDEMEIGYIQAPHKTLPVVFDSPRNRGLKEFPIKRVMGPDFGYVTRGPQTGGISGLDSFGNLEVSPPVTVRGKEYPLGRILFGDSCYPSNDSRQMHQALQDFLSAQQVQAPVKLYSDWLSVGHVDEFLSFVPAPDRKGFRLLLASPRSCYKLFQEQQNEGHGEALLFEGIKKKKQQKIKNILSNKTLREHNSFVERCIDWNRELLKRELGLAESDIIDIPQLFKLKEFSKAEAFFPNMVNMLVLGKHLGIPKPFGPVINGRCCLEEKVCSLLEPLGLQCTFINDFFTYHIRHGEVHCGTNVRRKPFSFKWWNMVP

This experiment concerns the target T1, human PAD4 (Homo sapiens, UniProt Q9UM07).
T1 construct: human PAD4 (NM_012387), A2P663, was PCR amplified; His-SUMO (N, cleaved yes); made in house; host or cells: E. coli BL21(DE3)
Kind of experiment: In vitro PAD4 BAEE biochemical assay. To be noted: human PAD4, BAEE substrate; 5 nM PAD4, 2 mM calcium chloride, 3 mM BAEE; geometric mean of multiple experiments. The protocol: The PCR product was ligated into linearized pET-SUMO vector (Invitrogen, Carlsbad, CA), which is part of the Champion™ pET SUMO Protein Expression System. After sequence verification for the correct orientation, the pET-SUMO-hPAD4 expression plasmid was transformed into BL21(DE3) cells.
E. Coli BL21(DE3) cells were inoculated in LB medium with kanamycin at 37° C. until A600 nm reached about 0.5. Protein expression was induced by addition of 0.5 mM IPTG (final) and continued overnight at 16° C. at 220 rpm.
Cells were harvested by centrifugation at 5000 rpm for 10 minutes at 4° C. The pellet was resuspended in 300 ml lysis buffer (20 mM Tris-HCl, pH 8.0, 1 mM EDTA, 500 mM NaCl, 1 mM (tris(2-carboxyethyl)phosphine) (TCEP), 10% glycerol, and 1% Triton X100 and EDTA free protease inhibitor) and lysed by 3× passage through a microfluidizer (Microfluidics, Newton, MA) at 18,000 psi. The cell lysate was clarified by centrifugation at 30,000 rpm for 60 minutes at 4° C. […] Bound protein was eluted with a 0-100% linear gradient of 100 mL Ni-B buffer (Ni A buffer+0.5 M Imidazole).
The protein was then reloaded onto a Ni—HP column for a reverse purification step and recovered in flow through fraction. The protein with His-Sumo tag removed was then polished using a 16/60 Superdex-200 gel filtration column with gel filtration buffer (20 mM Tris pH 8.0, NaCl 400 mM and 1 mM TCEP). The fractions containing the protein were pulled and frozen at −80° C.
The enzymatic activity of human PAD4 was monitored in a biochemical assay in the presence or absence of compounds using the small peptidyl arginine mimic BAEE (Na-Benzoyl-L-arginine ethyl ester hydrochloride) as substrate. PAD4 activity led to deamination of BAEE and release of ammonia. Levels of ammonia were monitored by using an amine coupling reaction and were indicative of PAD4 enzymatic activity.
One hundred nanoliters of test compounds dissolved in DMSO at various concentrations were dispensed into a 384-well black OptiPlate using a Labcyte Echo instrument. Ten microliters of a solution of recombinant PAD4 and calcium chloride diluted in PAD4 assay buffer (50 mM MOPS [3-(N-morpholino) propanesulfonic acid], pH 7.6; 50 mM sodium chloride; 0.05% Tween-20; 2 mM dithiothreitol) was added to the compound-containing plate and was incubated for 30 minutes at 25° C. Ten microliters of a solution of BAEE (Sigma-Aldrich #B4500) diluted in PAD4 assay buffer was then added to start the reaction. Final concentrations were 5 nM PAD4, 2 mM calcium chloride, and 3 mM BAEE. The reaction mixture was incubated at 25° C. for 2 hours and was stopped with the addition of 10 microliters of a solution of 75 mM EDTA (Ethylenediaminetetraacetic acid) in PAD4 assay buffer. Thirty microliters of detection solution (5 mM o-phthalaldehyde, 50 mM MOPS [3-(N-morpholino) propanesulfonic acid], pH 7.6; 50 mM sodium chloride; 0.05% Tween-20; 5 mM dithiothreitol) was then added and the reaction was incubated for 1 hour at 25° C.
A word on the IC50: it is the concentration that inhibits the measured activity by half. Regarding `COc1cc(C(=O)N2[C@H]3CC[C@@H]2[C@H](N)C3)cc2nc(-c3cc4ccc(C5CCNC(=O)C5)nc4n3CC3CC3)c(C)n12` (some centres unmarked) [Example 562, 4-[2-[7-[(1~{R},2~{R}, 4~{S})-2-amino-7-azabicyclo[2.2.1]heptane-7-carbonyl]-5-methoxy-3-methylimidazo[1,2-a]pyridin-2-yl]-1-(cyclopropylmethyl)pyrrolo[2,3-b]pyridin-6-yl]piperidin-2-one], the IC50 stood at 83.1 nM.

On to `COc1cc(C(=O)N2[C@H]3CC[C@@H]2[C@H](N)C3)cc2nc(-c3cc4ccc([C@@H](C)NC(=O)c5ccc(C#N)cc5)nc4n3CC3CC3)c(C)n12` [Example 123, ~{N}-[(1~{R})-1-[2-[7-[(1~{R},2~{R},4~{S})-2-amino-7-azabicyclo[2.2.1]heptane-7-carbonyl]-5-methoxy-3-methylimidazo [1,2-a]pyridin-2-yl]-1-(cyclopropylmethyl)pyrrolo [2,3-b]pyridin-6-yl]ethyl]-4-cyanobenzamide], for which the IC50 amounted to 79 nM.

Turning to `COc1cc(C(=O)N2CCC[C@@H](N)C2)cc2nc(-c3cc4ccc([C@@H](C)NC(=O)C56CC(F)(C5)C6)nc4n3CC3CC3)c(C3CC3)n12` [Example 145, ~{N}-[(1~{R})-1-[2-[7-[(3~{R})-3-aminopiperidine-1-carbonyl]-3-cyclopropyl-5-methoxyimidazo [1,2-a]pyridin-2-yl]-1-(cyclopropylmethyl)pyrrolo [2,3-b]pyridin-6-yl]ethyl]-3-fluorobicyclo[1.1.1]pentane-1-carboxamide], the IC50 came to 215 nM.

For the molecule `COc1cc(C(=O)N[C@@H]2CC[C@@H](C)NC2)cc2nc(-c3cc4ccc(N(C(F)F)S(C)(=O)=O)nc4n3CC3CC3)c(C)n12` [Example 314, 2-[1-(cyclopropylmethyl)-6-[difluoromethyl (methylsulfonyl)amino]pyrrolo[2,3-b]pyridin-2-yl]-5-methoxy-3-methyl-~{N}-[(3~{R},6~{R})-6-methylpiperidin-3-yl]imidazo[1,2-a] pyridine-7-carboxamide], the IC50 worked out at 38700 nM.

`COc1cc(C(=O)N2C[C@@H]3NCCO[C@@H]3C2)cc2nc(-c3cc4ccc(N(C(F)F)S(C)(=O)=O)nc4n3CC3CC3)c(C)n12` [Example 320, ~{N}-[2-[7-[(4~{a}~{S},7~{a}~{R})-3,4,4~{a},5,7,7~{a}-hexahydro-2~{H}-pyrrolo[3,4-b][1,4]oxazine-6-carbonyl]-5-methoxy-3-methylimidazo [1,2-a]pyridin-2-yl]-1-(cyclopropylmethyl)pyrrolo [2,3-b]pyridin-6-yl]-~{N}-(difluoromethyl) methanesulfonamide]: the IC50 is 19100 nM.

In the case of `Cc1c(-c2cc3ccc(N(C(F)F)S(C)(=O)=O)nc3n2CC2CC2)nc2cc(C(=O)N3C[C@H](N)CC[C@@H]3C)ccn12` [Example 402, ~{N}-[2-[7-[(2~{S},5~{R})-5-amino-2-methylpiperidine-1-carbonyl]-3-methylimidazo[1,2-a]pyridin-2-yl]-1-(cyclopropylmethyl)pyrrolo [2,3-b]pyridin-6-yl]-~{N}-(difluoromethyl) methanesulfonamide], the IC50 turned out to be 203 nM.

For `COc1cc(C(=O)N2[C@H]3CC[C@@H]2[C@H](N)C3)cc2nc(-c3cc4ccc([C@@H](C)N5CCN(C)C5=O)nc4n3CC3CC3)c(C)n12` [Example 270, 1-[(1~{R})-1-[2-[7-[(1~{R},2~{R},4~{S})-2-amino-7-azabicyclo[2.2.1]heptane-7-carbonyl]-5-methoxy-3-methylimidazo [1,2-a]pyridin-2-yl]-1-(cyclopropylmethyl)pyrrolo [2,3-b]pyridin-6-yl]ethyl]-3-methylimidazolidin-2-one], the IC50 stood at 34.7 nM.

For the molecule `COC(=O)N(C)c1ccc2cc(-c3nc4cc(C(=O)N5[C@H]6CC[C@@H]5[C@H](N)C6)cc(OC)n4c3C)n(CC3CC3)c2n1` [Example 465, methyl~{N}-[2-[7-[(1~{R},2~{R},4~{S})-2-amino-7-azabicyclo[2.2.1]heptane-7-carbonyl]-5-methoxy-3-methylimidazo [1,2-a]pyridin-2-yl]-1-(cyclopropylmethyl)pyrrolo [2,3-b]pyridin-6-yl]-~{N}-methylcarbamate], the IC50 was found to be 85.6 nM.

In the case of `C[C@H]1CC[C@@H](N)CN1C(=O)c1ccn2c(C(F)F)c(-c3cc4ccc(N(C(F)F)S(C)(=O)=O)nc4n3CC3CC3)nc2c1` [Example 409, ~{N}-[2-[7-[(2~{S},5~{R})-5-amino-2-methylpiperidine-1-carbonyl]-3-(difluoromethyl)imidazo [1,2-a]pyridin-2-yl]-1-(cyclopropylmethyl)pyrrolo [2,3-b]pyridin-6-yl]-~{N}-(difluoromethyl) methanesulfonamide], the IC50 stood at 1170 nM.

For `COc1cc(C(=O)N2C[C@H]3CC[C@@H]2[C@@H]3N)cc2nc(-c3cc4ccc([C@@H](C)NC(=O)N5CCCC5)nc4n3CC3CC3)c(C)n12` [Example 250, N-((R)-1-(2-(7-((1R,4R,7R)-7-amino-2-azabicyclo[2.2.1]heptane-2-carbonyl)-5-methoxy-3-methylimidazo[1,2-a]pyridin-2-yl)-1-(cyclopropylmethyl)-1H-pyrrolo[2,3-b]pyridin-6-yl)ethyl) pyrrolidine-1-carboxamide], the 50% inhibitory concentration (IC50) came out at 193 nM.

On to `COc1cc(C(=O)N2[C@H]3CC[C@@H]2[C@H](N)C3)cc2nc(-c3cc4ccc([C@@H](C)NC(=O)CC5(OC)CC5)nc4n3CC3CC3)c(C)n12` [Example 33, ~{N}-[(1~{R})-1-[2-[7-[(1~{R},2~{R}, 4~{S})-2-amino-7-azabicyclo[2.2.1]heptane-7-carbonyl]-5-methoxy-3-methylimidazo [1,2-a]pyridin-2-yl]-1-(cyclopropylmethyl)pyrrolo[2,3-b]pyridin-6-yl]ethyl]-2-(1-methoxycyclopropyl) acetamide], for which the IC50 turned out to be 69.8 nM.

As to `CCc1ccc2cc(-c3nc4cc(C(=O)N5CC6(N)CCC5CC6)cc(OC)n4c3C)n(CC3CC3)c2n1` [Example 593, (4-amino-2-azabicyclo[2.2.2]octan-2-yl)-[2-[1-(cyclopropylmethyl)-6-ethylpyrrolo[2,3-b]pyridin-2-yl]-5-methoxy-3-methylimidazo[1,2-a]pyridin-7-yl]methanone], the IC50 was 1900 nM.

Take `COc1cc(C(=O)N2C[C@H](N)C[C@@H]2C)cc2nc(-c3cc4ccc(N(C(F)F)S(C)(=O)=O)nc4n3CC3CC3)c(C)n12` [Example 354, N-[2-[7-[(2S,4R)-4-amino-2-methyl-pyrrolidine-1-carbonyl]-5-methoxy-3-methyl-imidazo[1,2-a]pyridin-2-yl]-1-(cyclopropylmethyl)pyrrolo[2,3-b]pyridin-6-yl]-N-(difluoromethyl) methanesulfonamide]: the IC50 came out at 1890 nM.

Consider `CCN(C(=O)OC)c1ccc2cc(-c3nc4cc(C(=O)N5[C@H]6CC[C@@H]5[C@H](N)C6)cc(OC)n4c3C)n(CC3CC3)c2n1` [Example 470, methyl~{N}-[2-[7-[(1~{R},2~{R},4~{S})-2-amino-7-azabicyclo[2.2.1]heptane-7-carbonyl]-5-methoxy-3-methylimidazo [1,2-a]pyridin-2-yl]-1-(cyclopropylmethyl)pyrrolo [2,3-b]pyridin-6-yl]-~{N}-ethylcarbamate], for which the IC50 was found to be 165 nM.
